In assay [1] the target is T1, CDK4/cyclin D3 (Homo sapiens, UniProt P11802).
T1 construct: purchased Carna Biosciences, Inc. QS S Assist CDK4/Cyclin D3_FP Kit
Put plainly: Human CDK4/cyclin D3 inhibitory activity (QS S Assist CDK4/Cyclin D3_FP Kit, IMAP fluorescent polarization). Format: biochemical. As to conditions: read-out: CDK4 Activity symbol. The gist of the method: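 Kinase reactions used kit CDK4/cyclin D3 at 12.5–25 ng/well with the kit ATP/substrate/metal mix in 20 mM HEPES (pH 7.4), 0.01% Tween20 and 2 mM DTT, run 45 min at room temperature. Phosphorylation was detected by IMAP fluorescence polarization (ex 485/em 535 nm) after 30 min binding in the dark. IC50 was fitted from percent inhibition against DMSO controls with and without enzyme.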

Assay [2] has as its target T2, CDK2/cyclin A2 (Homo sapiens, UniProt P24941).
T2 construct: purchased Carna Biosciences, Inc. QS S Assist CDK2/Cyclin A2_FP Kit
The assay is described as follows: Human CDK2/cyclin A2 inhibitory activity (QS S Assist CDK2/Cyclin A2_FP Kit, IMAP fluorescent polarization). Format: biochemical. As to conditions: read-out: CDK2 Activity symbol. The gist of the method: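 Kit CDK2/cyclin A2 (2.5 ng/well) was reacted with kit ATP/substrate/metal in 20 mM HEPES pH 7.4, 0.01% Tween 20 and 2 mM DTT for 60 min at room temperature. IMAP binding reagent was added for 30 min, then fluorescence polarization was read at 485/535 nm. IC50 came from dose-response fitting of percent inhibition.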

T1 sequence (P11802 whole entry): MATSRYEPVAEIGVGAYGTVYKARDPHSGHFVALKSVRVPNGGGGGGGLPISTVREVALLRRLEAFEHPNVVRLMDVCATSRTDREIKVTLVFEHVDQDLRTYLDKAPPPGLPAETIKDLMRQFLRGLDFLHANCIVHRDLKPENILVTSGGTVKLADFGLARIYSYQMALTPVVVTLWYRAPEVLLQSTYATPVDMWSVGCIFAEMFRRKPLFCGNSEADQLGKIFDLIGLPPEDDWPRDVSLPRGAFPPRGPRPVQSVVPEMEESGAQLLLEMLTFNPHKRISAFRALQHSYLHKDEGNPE
T1 sequence (P30281 whole entry partner): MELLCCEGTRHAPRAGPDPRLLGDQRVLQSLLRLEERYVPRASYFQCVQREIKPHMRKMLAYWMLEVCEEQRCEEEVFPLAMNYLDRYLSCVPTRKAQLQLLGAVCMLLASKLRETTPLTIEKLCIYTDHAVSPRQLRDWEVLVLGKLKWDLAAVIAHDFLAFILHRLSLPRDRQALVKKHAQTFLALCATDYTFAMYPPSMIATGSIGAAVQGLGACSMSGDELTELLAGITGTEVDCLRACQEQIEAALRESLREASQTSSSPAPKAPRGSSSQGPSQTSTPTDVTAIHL

Regarding `C[C@@H](O)c1cc2cnc(Nc3ccc4c(n3)CCN(C(=O)[C@H]3CCCN3)C4)nc2c(N2CCCCC2)n1` [Compound 209], the IC50 in assay [1] is less than 10 nM; in assay [2], no less than 100 nM.
For the molecule `C[C@@H](O)c1cc2cnc(Nc3ccc4c(n3)CCN(C(=O)[C@H]3CCNC3)C4)nc2c(N2CCCCC2)n1` [Compound 210], the IC50 is less than 10 nM in assay [1] and no less than 100 nM in assay [2].
`C[C@@H](O)c1cc2cnc(Nc3ccc4c(n3)CCN(C(=O)[C@H]3CCCCN3)C4)nc2c(N2CCCCC2)n1` [Compound 211]: the figures for the IC50 in assay [1] and in assay [2] were less than 10 nM and no less than 100 nM, respectively.
For `C[C@@H](O)c1cc2cnc(Nc3ccc4c(n3)CCN(C(=O)[C@H]3C[C@H](O)CN3)C4)nc2c(N2CCCCC2)n1` [Compound 212], the IC50 in assay [1] was less than 10 nM; in assay [2] it was no less than 100 nM.
With `C[C@@H](O)c1cc2cnc(Nc3ccc4c(n3)CCN(C(=O)[C@H]3C[C@@H](O)CN3)C4)nc2c(N2CCCCC2)n1` [Compound 213], the IC50 is less than 10 nM in assay [1] and no less than 100 nM in assay [2].
For `C[C@@H](O)c1cc2cnc(Nc3ccc4c(n3)CCN(C(=O)[C@@H]3CCCNC3)C4)nc2c(N2CCCCC2)n1` [Compound 214], in that order: less than 10 nM and no less than 100 nM.
With `C[C@@H](O)c1cc2cnc(Nc3ccc4c(n3)CCN(C(=O)[C@H]3CCN3)C4)nc2c(N2CCCCC2)n1` [Compound 215], the IC50 in assay [1] is less than 10 nM; in assay [2] it was no less than 100 nM.
As for `C[C@@H](O)c1cc2cnc(Nc3ccc4c(n3)CCN(C(=O)C3CNCCO3)C4)nc2c(N2CCCCC2)n1` (stereo partly shown) [Compound 216], the IC50 is less than 10 nM in assay [1] and no less than 100 nM in assay [2].
For `CC(O)c1cc2cnc(Nc3ccc(OC4CCN(CCO)CC4)cn3)nc2c(N2C3CCC2CC3)n1` (stereo not shown) [Compound 218], in that order: less than 10 nM and no less than 100 nM.
Regarding `C[C@@H](O)c1cc2cnc(Nc3ccc(OC4CCN(CCO)CC4)cn3)nc2c(N2CC[C@@H](F)C2)n1` [Compound 219], the IC50 is less than 10 nM in assay [1] and no less than 100 nM in assay [2].
Turning to `C[C@@H](O)c1cc2cnc(Nc3ccc(OC4CCNCC4)cn3)nc2c(N2C3CCC2CC3)n1` [Compound 220], the figures for the IC50 in assay [1] and in assay [2] were less than 10 nM and no less than 100 nM, respectively.
Turning to `C[C@@H](O)c1cc2cnc(Nc3ccc(OC4CCNCC4)cn3)nc2c(N2CC[C@@H](F)C2)n1` [Compound 221], the results for the IC50 in assay [1] and in assay [2] were less than 10 nM and no less than 100 nM, respectively.
For `C[C@@H](O)c1cc2cnc(Nc3ccc(OC4CCN(CCO)CC4)cn3)nc2c(N2CCC[C@H](F)C2)n1` [Compound 222], in that order: less than 10 nM and no less than 100 nM.
For `C[C@@H](O)c1cc2cnc(Nc3ccc4c(n3)CCN(C(=O)[C@@H]3CCCN3C)C4)nc2c(N2C3CCC2CC3)n1` [Compound 223], in that order: less than 10 nM and no less than 100 nM.
In the case of `C[C@@H](O)c1cc2cnc(Nc3ccc4c(n3)CCN(C(=O)[C@H]3CCCN3C)C4)nc2c(N2C3CCC2CC3)n1` [Compound 224], the IC50 in assay [1] is less than 10 nM; in assay [2], no less than 100 nM.
For the molecule `C[C@@H](O)c1cc2cnc(Nc3ccc4c(n3)CCN(C(=O)[C@H]3CCN(C)C3)C4)nc2c(N2C3CCC2CC3)n1` [Compound 225], the figures for the IC50 in assay [1] and in assay [2] were less than 10 nM and no less than 100 nM, respectively.
Regarding `C[C@@H](O)c1cc2cnc(Nc3ccc4c(n3)CCN(C(=O)[C@@H]3CCN(C)C3)C4)nc2c(N2C3CCC2CC3)n1` [Compound 226], the IC50 is less than 10 nM in assay [1] and no less than 100 nM in assay [2].
On to `C[C@@H](O)c1cc2cnc(Nc3ccc4c(n3)CCN(C(=O)[C@@H]3C[C@@H](O)CN3C)C4)nc2c(N2C3CCC2CC3)n1` [Compound 227], for which the IC50 was less than 10 nM in assay [1] and no less than 100 nM in assay [2].
On to `C[C@@H](O)c1cc2cnc(Nc3ccc4c(n3)CCN(C(=O)CN3CCCC3)C4)nc2c(N2C3CCC2CC3)n1` [Compound 228], for which the IC50 in assay [1] is less than 10 nM; in assay [2], no less than 100 nM.
Turning to `C[C@@H](O)c1cc2cnc(Nc3ccc4c(n3)CCN(C(=O)CN3CC(O)C3)C4)nc2c(N2C3CCC2CC3)n1` [Compound 229], the IC50 is less than 10 nM in assay [1] and no less than 100 nM in assay [2].
With `C[C@@H](O)c1cc2cnc(Nc3ccc4c(n3)CCN(C(=O)CN3CCC3)C4)nc2c(N2C3CCC2CC3)n1` [Compound 230], the figures for the IC50 in assay [1] and in assay [2] were less than 10 nM and no less than 100 nM, respectively.
With `C[C@@H](O)c1cc2cnc(Nc3ccc4c(n3)CCN(C(=O)CN3CC[C@@H](F)C3)C4)nc2c(N2C3CCC2CC3)n1` [Compound 231], the results for the IC50 in assay [1] and in assay [2] were less than 10 nM and no less than 100 nM, respectively.
With `C[C@@H](O)c1cc2cnc(Nc3ccc4c(n3)CCN(C(=O)CN3CC[C@@H](O)C3)C4)nc2c(N2C3CCC2CC3)n1` [Compound 232], the IC50 was less than 10 nM in assay [1] and no less than 100 nM in assay [2].
The like results for `C[C@@H](O)c1cc2cnc(Nc3ccc4c(n3)CCN(C(=O)CN3CC[C@H](O)C3)C4)nc2c(N2C3CCC2CC3)n1` [Compound 233] were, in that order, less than 10 nM and no less than 100 nM.
On to `C[C@@H](O)c1cc2cnc(Nc3ccc4c(n3)CCN(C(=O)CNC3COC3)C4)nc2c(N2C3CCC2CC3)n1` [Compound 234], for which the IC50 in assay [1] was 10 to 100 nM; in assay [2] it was no less than 100 nM.
Consider `C[C@@H](O)c1cc2cnc(Nc3ccc4c(n3)CCN(C(=O)CN3CC(F)C3)C4)nc2c(N2C3CCC2CC3)n1` [Compound 235], for which the IC50 was less than 10 nM in assay [1] and no less than 100 nM in assay [2].
The like results for `CC(O)c1cc2cnc(Nc3ccc4c(n3)CCN(C(=O)CN3CC5(COC5)C3)C4)nc2c(N2C3CCC2CC3)n1` (stereo not shown) [Compound 236] were, in that order, less than 10 nM and no less than 100 nM.
In the case of `C[C@@H](O)c1cc2cnc(Nc3ccc4c(n3)CCN(C(=O)[C@@H]3CCCCN3C)C4)nc2c(N2C3CCC2CC3)n1` [Compound 237], the results for the IC50 in assay [1] and in assay [2] were less than 10 nM and no less than 100 nM, respectively.
`CC(O)c1cc2cnc(Nc3ccc4c(n3)CCN(C(=O)C3CCCCN3C)C4)nc2c(N2C3CCC2CC3)n1` (stereo not shown) [Compound 238]: the IC50 in assay [1] was less than 10 nM; in assay [2], no less than 100 nM.
The like results for `C[C@@H](O)c1cc2cnc(Nc3ccc4c(n3)CCN(C(=O)C3CN(C)C3)C4)nc2c(N2C3CCC2CC3)n1` [Compound 239] were, in that order, less than 10 nM and no less than 100 nM.
As to `C[C@@H](O)c1cc2cnc(Nc3ccc4c(n3)CCN(C3CN(C)C3)C4)nc2c(N2C3CCC2CC3)n1` [Compound 240], the IC50 is less than 10 nM in assay [1] and no less than 100 nM in assay [2].
In the case of `C[C@@H](O)c1cc2cnc(Nc3ccc(O[C@H]4CCCNC4)cn3)nc2c(N2CCCCC2)n1` [Compound 241], the IC50 is less than 10 nM in assay [1] and no less than 100 nM in assay [2].
On to `CC(O)c1cc2cnc(Nc3ccc(OC4CCCNC4)cn3)nc2c(N2C3CCC2CC3)n1` (stereo not shown) [Compound 242], for which the IC50 in assay [1] was less than 10 nM; in assay [2] it was no less than 100 nM.
On to `C[C@@H](O)c1cc2cnc(Nc3ccc(OC4CCNCC4)cn3)nc2c(N2CCC[C@H](F)C2)n1` [Compound 243], for which the IC50 was less than 10 nM in assay [1] and no less than 100 nM in assay [2].
Take `O=C1CCNCCN1c1ccc(Nc2ncc3cc(CO)nc(N4CCCCC4)c3n2)nc1` [Compound 244]: the IC50 in assay [1] is less than 10 nM; in assay [2], no less than 100 nM.
As to `CC[C@@H](O)c1cc2cnc(Nc3ccc(N4CCNCC4=O)cn3)nc2c(N2CCC[C@H]2C)n1` [Compound 245], the IC50 in assay [1] is less than 10 nM; in assay [2], no less than 100 nM.
With `CC[C@H](O)c1cc2cnc(Nc3ccc(N4CCNCC4=O)cn3)nc2c(N2CCC[C@H]2C)n1` [Compound 246], the IC50 is less than 10 nM in assay [1] and no less than 100 nM in assay [2].
Regarding `CC[C@@H](O)c1cc2cnc(Nc3ccc(CN4CCN(CCO)CC4)cn3)nc2c(N2CCC[C@H]2C)n1` [Compound 247], the IC50 was less than 10 nM in assay [1] and no less than 100 nM in assay [2].
With `CC[C@H](O)c1cc2cnc(Nc3ccc(CN4CCN(CCO)CC4)cn3)nc2c(N2CCC[C@H]2C)n1` [Compound 248], the IC50 was less than 10 nM in assay [1] and no less than 100 nM in assay [2].
`C[C@@H](O)c1cc2cnc(Nc3ccc(CN4CCN(CCO)C(=O)C4)cn3)nc2c(N2CCCCC2)n1` [Compound 249]: the IC50 in assay [1] is 10 to 100 nM; in assay [2], no less than 100 nM.
For the molecule `C[C@@H](O)c1cc2cnc(Nc3ccc(O[C@H]4CCCNC4)cn3)nc2c(N2CC[C@@H](F)C2)n1` [Compound 250], the IC50 in assay [1] is less than 10 nM; in assay [2] it was no less than 100 nM.
With `C[C@@H](O)c1cc2cnc(Nc3ccc(O[C@H]4CCCNC4)cn3)nc2c(N2CCC[C@H](F)C2)n1` [Compound 251], the IC50 is less than 10 nM in assay [1] and no less than 100 nM in assay [2].
Consider `C[C@@H](O)c1cc2cnc(Nc3ccc(O[C@H]4CCCN(CCO)C4)cn3)nc2c(N2CCCCC2)n1` [Compound 252], for which the IC50 in assay [1] was less than 10 nM; in assay [2], no less than 100 nM.
The like results for `C[C@@H](O)c1cc2cnc(Nc3ccc(O[C@H]4CCCN(CCO)C4)cn3)nc2c(N2C3CCC2CC3)n1` [Compound 253] were, in that order, less than 10 nM and no less than 100 nM.
As to `C[C@@H](O)c1cc2cnc(Nc3ccc(O[C@H]4CCCN(CCO)C4)cn3)nc2c(N2CC[C@@H](F)C2)n1` [Compound 254], the IC50 was less than 10 nM in assay [1] and no less than 100 nM in assay [2].
`C[C@@H](O)c1cc2cnc(Nc3ccc(O[C@H]4CCCN(CCO)C4)cn3)nc2c(N2CCC[C@H](F)C2)n1` [Compound 255]: the values for the IC50 in assay [1] and in assay [2] were less than 10 nM and no less than 100 nM, respectively.
For the molecule `C[C@@H](O)c1cc2cnc(Nc3ccc(N4CCNCC4=O)cn3)nc2c(N2C3CCC2CC3)n1` [Compound 256], the values for the IC50 in assay [1] and in assay [2] were less than 10 nM and no less than 100 nM, respectively.
